Key:
[1] = test system: TOV-21G adenocarcinoma/clear cell carcinoma ovarian cancer cells; experiment: MTT cytotoxicity study with ebselen and allopurinol; format: cell-based, human; settings: each drug 100 μM, no cisplatin/paclitaxel
Protocol: (§1) Each of the cell lines listed above was plated at a density of 3,500 cells per well in 96 well plates and incubated at 37° C. for 24 hours. […] After the one hour incubation, 50 μl of cisplatin and paclitaxel were added to the cell lines at the various concentrations shown in TABLE 2 to achieve an IC50 in the absence of other drugs. The cells were then incubated at 37° C. in 5% CO2 in the presence of the cisplatin and paclitaxel for an additional 67-72 hours. Control wells were included as follows: no drug, ebselen, allopurinol, ebselen and allopurinol, and cisplatin/paclitaxel.
(§2) After the 67-72 hour incubation period, 10 μl of MTT (3-(4,5-dimethlythiazol-2-yl)-2,5-diphenyl […] bromide) working solution was added to each well (based on the instructions in the Chemicon MTT Cell Growth Kit Cat #CT01) and the cells were incubated for 4 hours. 100 μl of isopropanol/HCl solution was then added to each well and absorbance at 570 nm was measured. The results of the MTT assay for the different ovarian cancer cell lines tested are shown in FIGS. 9A-16C and are summarized below in TABLE 3.

[2] = test system: SKOV-3 adenocarcinoma ovarian cancer cells; experiment: as above; format: cell-based, human; settings: each drug 100 μM, no cisplatin/paclitaxel
Protocol: as §1, §2

[3] = test system: TOV-112D adenocarcinoma/endometroid carcinoma ovarian cancer cells; experiment: as above; format: cell-based, human; settings: each drug 100 μM, no cisplatin/paclitaxel
Protocol: as §1, §2

[4] = test system: CAOV-3 adenocarcinoma ovarian cancer cells; experiment: as above; format: cell-based, human; settings: each drug 100 μM, no cisplatin/paclitaxel
Protocol: as §1, §2

[5] = test system: ES-2 clear cell carcinoma ovarian cancer cells; experiment: as above; format: cell-based, human; settings: each drug 100 μM, no cisplatin/paclitaxel
Protocol: as §1, §2

[6] = test system: OV-90 papillary serous adenocarcinoma ovarian cancer cells; experiment: as above; format: cell-based, human; settings: each drug 100 μM, no cisplatin/paclitaxel
Protocol: as §1, §2

[7] = test system: OVCAR-3 adenocarcinoma ovarian cancer cells; experiment: as above; format: cell-based, human; settings: each drug 100 μM, no cisplatin/paclitaxel
Protocol: as §1, §2

[8] = test system: NuTu-19 ovarian cancer cells; experiment: MTS cell viability assay, cultured NuTu-19 cells; format: cell-based, rat; settings: for effect on the ability of cisplatin to kill NuTu-19 cells: with cisplatin 43 μM, FIG. 2 and 3
Protocol: NuTu-19 cells were plated at a density of 3,000 cells per well in 96 well culture dishes, and incubated at 37° C., in the presence of 5% carbon dioxide, for 24 hours. […] The NuTu-19 cells were then rinsed with media and incubated in the presence of cisplatin for an additional 24 hours.
The NuTu-19 cells were then rinsed twice with phosphate buffered saline (PBS), then MTS assays were performed to measure the number of living cells. MTS is an abbreviation for (3-(4,5-dimethylthiazol-2-yl)-5-(3-carboxymethoxyphenyl)-2-(4-sulfophenyl)-2H-tetrazolium. The MTS assay is a colorimetric method for determining the number of viable cells based upon physiologic catabolism of MTS to a formazan product that is soluble in tissue culture medium. The absorbance of the formazan product at 490 nm can be measured directly from a 96 well plate using a plate reader. Increased absorbance at 490 nm correlates with increased production of formazan in a well. This is typically due to more viable cells present in a well.

[9] = treatment of acute ischemic stroke; cited from earlier work
non-cancer cell line = settings: Baldew et al. 1992; cited from earlier work
[10] = test system: rSPI-tu epithelial ovarian cancer cells; experiment: MTT cytotoxicity study with ebselen and allopurinol; format: cell-based, rat; settings: each drug 100 μM, no cisplatin/paclitaxel
Protocol: Each of the cell lines listed above was plated at a density of 3,500 cells per well in 96 well plates and incubated at 37° C. for 24 hours. […] After the one hour incubation, 50 μl of cisplatin and paclitaxel were added to the cell lines at the various concentrations shown in TABLE 2 to achieve an IC50 in the absence of other drugs. […]
[…], 10 μl of MTT (3-(4,5-dimethlythiazol-2-yl)-2,5-diphenyl […] bromide) working solution was added to each well (based on the instructions in the Chemicon MTT Cell Growth Kit Cat #CT01) and the cells were incubated for 4 hours. 100 μl of isopropanol/HCl solution was then added to each well and absorbance at 570 nm was measured.

[11] = test system: rats treated with cisplatin; experiment: Auditory Evoked Brainstem Response (ABR), permanent threshold shift after cisplatin; format: in vivo, rat; settings: 8, 16, 24, 32 kHz; ebselen 16 mg/kg i.p. plus cisplatin 16 mg/kg i.p., versus cisplatin without ebselen; 72 hours; FIG. 6
Protocol: (§3) Auditory Evoked Brainstem Response (ABR) was used to assess hearing in rats before and after exposure to cisplatin and chemoprotectants. Ebselen or DMSO (control vehicle) were introduced intraperitoneally into rats one hour before intraperitoneal administration of cisplatin at a dosage of 16 mg/kg body weight. Seventy-two hours after delivery of cisplatin, ABR data were collected, animals were sacrificed, cochleae were collected, dissected, stained with FITC-phalloidin (to detect F-Actin in hair cells), and DAPI (to detect nuclear DNA).
Ten cochlea were tested per treatment. The PTS is a measure of hearing loss.
Four cochlea were tested per treatment.

[12] = test system: mammalian ovarian cancer cell lines; experiment: MTT cytotoxicity study, statements over all ovarian cancer cell lines tested; format: cell-based
Protocol: Each of the cell lines listed above was plated at a density of 3,500 cells per well in 96 well plates and incubated at 37° C. for 24 hours. […] After the one hour incubation, 50 μl of cisplatin and paclitaxel were added to the cell lines at the various concentrations shown in TABLE 2 to achieve an IC50 in the absence of other drugs. The cells were then incubated at 37° C. in 5% CO2 in the presence of the cisplatin and paclitaxel for an additional 67-72 hours.
After the 67-72 hour incubation period, 10 μl of MTT (3-(4,5-dimethlythiazol-2-yl)-2,5-diphenyl […] bromide) working solution was added to each well (based on the instructions in the Chemicon MTT Cell Growth Kit Cat #CT01) and the cells were incubated for 4 hours. 100 μl of isopropanol/HCl solution was then added to each well and absorbance at 570 nm was measured.

inner ear hair cells = experiment: Cochlea explant culture, inner ear hair cell count (calbindin/DAPI); format: cell-based, mouse; settings: FIG. 5
Protocol: Three cochlea per treatment, obtained from P3-4 mouse pups, were cultured in 0.4 micrometer MilliCell-CM inserts with NeuroBasal A medium plus B27 supplement. After 24 hours in culture, ebselen was added to the medium, incubated for ten minutes, and then cisplatin was added to the medium at a final concentration of 43 μM. A first control treatment included 43 μM cisplatin. A second control treatment included 47 μM ebselen without the addition of cisplatin. All cultures were incubated for 24 hours at 37° C. in 5% carbon dioxide.
The explants were then harvested, fixed, and stained with calbindin (which detects hair cells) and DAPI (4′,6-Diamindino-2-phenylindole; for detection of nuclear DNA).

[13] = test system: cochlear outer hair cells; experiment: Count of outer auditory hair cells in excised cochleae after cisplatin; format: in vivo, rat; settings: cisplatin and ebselen versus cisplatin, saline and DMSO; FIG. 8A, 8B
Protocol: as §3
Additionally, cochleae were excised from rats treated with the combination of cisplatin and ebselen as described in this Example. Cochleae were also excised from rats treated with cisplatin and saline and DMSO (control). The number of outer auditory hair cells in the excised cochlea were counted at intervals of 0.1 mm along the cochlea. Representative results from a control rat and a treated rat are shown in FIG. 8A and FIG. 8B, respectively.

NuTu-19 tumors = experiment: NuTu-19 ovarian cancer tumor model in F-344 rats, tumor response; format: in vivo, rat
Protocol: An ovarian cancer tumor model was established in rats by injection of 10^7 NuTu-19 cells into the peritoneal cavity of 8-10 week old female F-344 rats. Rats with injected NuTu-19 cells were allowed to develop tumor burden for two weeks prior to cisplatin treatment. A control series of 10 rats was evaluated separately for the development of ovarian tumor burden under the described conditions. All rats in the control series were sacrificed 5 weeks after NuTu-19 tumor cell injection and tumor burden was evaluated.
The absence of ascites, but presence of more than 5 visible tumor nodules (each >0.5 mm) in the peritoneal cavity was considered to be an indication that the cancer partially responded to the treatment. The absence of ascites and presence of fewer than 5 visible tumor nodules (each >0.5 mm) was considered to be an indication that the cancer fully responded to the treatment.

[14] = patients receiving cisplatin; Helson 1978; cited from earlier work
[15] = all cell lines tested, concentration range from 20 μM to 100 μM

| Structure (SMILES) | Percent live cells after 96 hour drug treatment [2] | Percent live cells after 96 hour drug treatment [3] | Percent live cells after 96 hour drug treatment [4] | Percent live cells after 96 hour drug treatment [5] | Percent live cells after 96 hour drug treatment [6] | Percent live cells after 96 hour drug treatment [7] | effect on the ability of cisplatin to kill NuTu-19 cells [8] | Percent live cells after 96 hour drug treatment [10] | cytotoxicity on the ovarian cancer cell lines [12, 15] | also measured |
| --- | --- | --- | --- | --- | --- | --- | --- | --- | --- | --- |
| O=c1c2ccccc2[se]n1-c1ccccc1 [ebselen, 2-phenyl-1,2-benzoisoselenazol-3(2H)-one] | ~40% | ~18% | ~0% | ~20% | ~40% | ~20% | does not inhibit the ability of cisplatin to kill NuTu-19 ovarian cancer tumor cells | ~20% | induced dose-dependant cytotoxicity | Percent live cells after 96 hour drug treatment [1]: ~18%; adverse events in human clinical testing [9]: no adverse events were identified; toxicity in a non-cancer cell line (non-cancer cell line): non-toxic; permanent threshold shift (PTS) in hearing [11]: PTS is less; effect on the chemotherapeutic activity of cisplatin and paclitaxel in multi-drug chemotherapy resistant cell lines ([12]; ES-2, SKOV-3 and OVCAR-3): enhanced the chemotherapeutic activity of cisplatin and paclitaxel; effect on the chemotherapeutic effect of cisplatin plus paclitaxel [12, 15]: enhances the chemotherapeutic effect of cisplatin plus paclitaxel; protection of inner ear hair cells from damage by cisplatin (inner ear hair cells; 47 μM ebselen plus 43 μM cisplatin, 24 hours, in vitro): protects inner ear hair cells from damage by cisplatin; cytotoxic effect on cochlear inner ear cells (inner ear hair cells; ebselen 47 μM without cisplatin): does not appear to have a cytotoxic effect; percentage of outer hair cells missing in cochleae [13]: less |
| Oc1ncnc2[nH]ncc12 [allopurinol] | ~90% | ~100% | ~80% | ~90% | ~100% | ~100% | does not inhibit the ability of cisplatin to kill NuTu-19 ovarian cancer tumor cells | ~80% | did not have a toxic effect |  |
| N.N.[Cl][Pt][Cl] [cisplatin, cis-diaminedichloroplatinum] |  |  |  |  |  |  |  |  |  | killing of cultured NuTu-19 ovarian cancer cells ([8]; incubation for 24 hours in the presence of cisplatin, FIG. 1): killed; Tumor Response % Complete (NuTu-19 tumors; rats that showed no sign of tumor burden): 57%; Tumor Response % Partial (NuTu-19 tumors; rats that showed some evidence of tumor burden): 43%; Tumor Response % No (NuTu-19 tumors; rats with tumors not responsive to cisplatin treatment): 0%; patients who experience significant hearing loss [14]: up to 90% |
